According to US20030100769A1, “Cyclic amidine compounds” (priority 2000, published 2003):

Key:
[1] = biological target: α1β1γδ subtype of nicotinic acetylcholine receptors (Rattus norvegicus, UniProt P18916+P25108+P25109+P25110); test: biochemical; assay type: binding; settings: for remaining activity at 100 µM: read-out: control % of [3H]-α-Bgt binding at 100 μM of test compound; for remaining activity at 1000 µM: read-out: control % of [3H]-α-Bgt binding at 1,000 μM of test compound
Description: The methods for evaluating the binding capabilities of the compounds at nicotinic acetylcholine receptors are different by subtypes of receptors. The binding capabilities of the compounds at α4β2 nicotinic acetylcholine receptors are examined using rat brain membrane obtained from whole homogenized brain, and determining the inhibiting rate of the compounds against [^3H]-cytisine binding to said brain membrane. Furthermore, the binding capabilities of the compounds at α1β1γδ nicotinic acetylcholine receptors are examined using homogenized rat muscle, and determining the inhibiting rate of the compounds against [^3H]-α-bungarotoxin binding to said muscle homogenate.
Binding Assays at α1β1γδ Subtype of Nicotinic Acetylcholine Receptors
The affinity of the compounds of the present invention to α1β1γδ subtype of nicotinic acetylcholine receptors was measured by the following method, which was modified method described by Garcha H. S., Thomas P., Spivak C.
(1) Preparation of Rat Skeletal Muscles Containing α1β1γδ Subtype of Nicotinic Acetylcholine Receptors
The substantially same animals described in the Biological Experiment 1 were used.
The isolation of α1β1γδ subtype of nicotinic acetylcholine receptors was performed as follow. That is, rat posterior skeletal muscles were isolated just after sacrificed by decapitation, washed with ice-cooled saline solution and then frozen at −80° C. with liquid nitrogen and stored till using. After thawing the frozen muscles, tissue was homogenized ([…]) with buffer solution [2.5 mM of sodium phosphate buffer (pH:7.2), 90 mM of NaCl, 2 mM of KCl, 1 mM of EDTA, 2 mM of benzamidine, 0.1 mM of benzethonium chloride, 0.1 mM of PMSF, 0.01% of sodium azide] in Waring blender (Waring blender 34BL97; WARING PRODUCTS DIVISION DYNAMICS CORPORATION OF AMERICA) for 60 seconds. The homogenate were centrifuged under 20,000×G for 60 minutes at 4° C. The supernatant was separated and the resulting pellet was added to the same buffer (1.5 ml/g wet weight), and homogenized under the same conditions. Triton X100 (2% w/v) was added and the mixture was stirred for 3 hours at 4° C. The centrifugation at 100,000×G for 60 minutes at 4° C. yielded the rat muscle extract as supernatant. This was stored at 4° C. for up to 4 weeks, and used for binding assays at receptors.
(2) Experiments of α1β1γδ Subtype of Nicotinic Acetylcholine Receptors Binding
Receptors binding experiments were performed as follow. That is, the extract of rat muscle containing 600-900 μg of protein was added to test tubes containing test compounds and incubated for 15 minutes at 37° C. Then, to this mixture was added 1 nM of [^3H]-α-bungarotoxin (α-Bgt) and further incubated for 2 hours. The samples were isolated by vacuum filtration onto Whatman GF/B filters, which were prerinsed with 0.5% polyethylenimine just prior to sample filtration, using Brandel multi manifold cell harvester. The filters were rapidly rinsed with washing solution (10 mM of KH2PO4, 150 mM of NaCl, pH 7.2, room temperature) (5×1 ml). The filters were counted in 3 ml of clearsol I (Nacalai Tesque Inc.). The determination of nonspecific binding was incubated in the presence of 1 μM α-Bgt. […] In the receptor binding experiments, said buffer solution was added for adjusting the final concentration of BSA to be 0.05%.
The analyses of the experimental results were conducted by the same way as described in the Biological Experiment 1.

[2] = biological target: T1, human α4β2 subtype of nicotinic acetylcholine receptors (Homo sapiens, UniProt P17787+P43681); test: Agonist activities at human α4β2 subtype of nicotinic acetylcholine receptors expressed in Xenopus oocytes (membrane potential holding method); assay type: cell-based; settings: for EC50: held at −50 mV, calculated in comparison with the reaction with 10 μM acetylcholine (100%), read-out: Agonist activity (ED50)
T1 construct: expressed in transfected cells; host or cells: Xenopus laevis oocytes injected with hnACh-R α4 and β2 cRNA (pSP64 polyA)
Procedure: The agonist effect in human α4β2 subtype of nicotinic acetylcholine receptors are examined by using human nicotinic acetylcholine receptors prepared in oocytes of Xenopus laevis, which is injected with cRNA from the corresponding cloning cDNA of human α4 and β2 subunits of nicotinic acetylcholine receptors, and to measure the expression of the electric response by adding the test compounds to perfusion solution by means of membrane potential holding method.
Agonist Activities at Human α4β2 Subtype of Nicotinic Acetylcholine Receptors
(1) Preparation of cRNA of Human α4β2 Subtype of Nicotinic Acetylcholine Receptors
The obtained hnACh-R α4 cDNA and hnACh-R β2 cDNA were inserted to the cRNA expression vector (pSP64 polyA) having SP6 RNA promoter to construct hnACh-R α4/pSP64 polyA and hnACh-R β2/pSP64 polyA, respectively. After cutting from expression vector by restriction enzyme (EcoRI), transcription was performed by affecting SP6 RNA polymerase in the presence of cap analogues to obtain hnACh-R α4 cRNA and hnACh-R β2 cRNA, respectively.
(2) Expression of Human α4β2 Subtype Nicotinic Acetylcholine Receptors in Xenopus Oocytes
Oocytes were purchased from Kitanihonseibutsukyohzai Co., Ltd., which were already enucleated from Xenopus laevis, and used in this experiment.
The oocytes were treated with collagenase (Sigma type I; 1 mg/ml) in calcium-free modified Birth's solution (88 mM of NaCl, 1 mM of KCl, 2.4 mM of NaHCO3, 0.82 mM of MgSO4, 15 mM of HEPES, pH 7.6) under gently stirring at room temperature for 90 minutes, and washed out the enzyme from the tissue. Then, oocytes were separated from ovarian follicle by tweezers, and isolated oocytes were placed in antibiotics containing modified Birth's solution (88 mM of NaCl, 1 mM of KCl, 2.4 mM of NaHCO3, 0.82 mM of MgSO4, 15 mM of HEPES, pH 7.6, and 0.1 v/v % of mixture solution containing of penicillin and streptomycin for incubation; Sigma Co.). […] In oocytes, heterogeneous quintuple [(α4)2(β2)3] was composed by translation of injected cRNAs, and ion channel receptors were constructed on cell membrane.
(3) Agonist Activities at Human α4β2 Subtype of Nicotinic Acetylcholine Receptors
The recordings of responses at human α4β2 subtype of nicotinic acetylcholine receptors by means of membrane potential holding method were performed as follow. […] Test compounds were added to the perfusion solution, and recorded the peak strength of induced inward current. In order to normalize the responses of test compounds, the responses with acetylcholine (Ach) were recorded before and after application of the test compounds. Generally in the oocytes just after isolated, the response of intrinsic muscarinic acetylcholine receptors, which is inward current caused by activation of calcium dependence chloride ion channels with increase of the intracellular calcium concentration by stimulation of receptors, is observed. […] Therefore, the responses observed in oocytes with injection of hnACh-R α4 cRNA and hnACh-R β2 cRNA, i.e., the inward current induced by the intracellular influx of sodium ion according to the stimulation of receptors, would be the freshly observed responses of human α4β2 subtype nicotinic acetylcholine receptors.

Chain of α1β1γδ subtype of nicotinic acetylcholine receptors (P25109 24-501): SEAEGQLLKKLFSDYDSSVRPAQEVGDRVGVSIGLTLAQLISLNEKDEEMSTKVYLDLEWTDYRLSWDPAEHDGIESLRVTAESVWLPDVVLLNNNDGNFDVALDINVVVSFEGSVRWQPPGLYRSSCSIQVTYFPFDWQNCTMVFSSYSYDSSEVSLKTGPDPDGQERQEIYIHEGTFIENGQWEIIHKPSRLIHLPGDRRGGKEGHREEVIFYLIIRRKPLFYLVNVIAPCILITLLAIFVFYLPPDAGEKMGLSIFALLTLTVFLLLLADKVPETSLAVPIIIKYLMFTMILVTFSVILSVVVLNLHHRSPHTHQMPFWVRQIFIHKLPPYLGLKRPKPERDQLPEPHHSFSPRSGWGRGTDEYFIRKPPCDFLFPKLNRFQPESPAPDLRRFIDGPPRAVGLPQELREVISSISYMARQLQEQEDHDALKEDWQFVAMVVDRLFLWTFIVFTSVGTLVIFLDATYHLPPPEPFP
Chain of α1β1γδ subtype of nicotinic acetylcholine receptors (P25110 22-517): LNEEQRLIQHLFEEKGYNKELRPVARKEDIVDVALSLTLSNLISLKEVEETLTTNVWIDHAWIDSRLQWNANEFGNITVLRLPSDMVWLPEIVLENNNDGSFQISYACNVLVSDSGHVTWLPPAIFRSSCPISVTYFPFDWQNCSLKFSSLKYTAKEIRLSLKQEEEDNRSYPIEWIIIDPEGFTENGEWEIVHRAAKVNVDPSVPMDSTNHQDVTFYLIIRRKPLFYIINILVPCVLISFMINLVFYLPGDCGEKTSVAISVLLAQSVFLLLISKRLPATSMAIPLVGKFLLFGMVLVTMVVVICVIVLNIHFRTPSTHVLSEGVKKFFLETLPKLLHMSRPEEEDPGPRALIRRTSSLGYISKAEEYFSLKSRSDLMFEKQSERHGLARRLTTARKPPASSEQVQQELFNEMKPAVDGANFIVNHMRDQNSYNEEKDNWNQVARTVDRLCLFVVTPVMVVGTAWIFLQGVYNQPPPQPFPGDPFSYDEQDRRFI
Chain of α1β1γδ subtype of nicotinic acetylcholine receptors (P25108 21-457): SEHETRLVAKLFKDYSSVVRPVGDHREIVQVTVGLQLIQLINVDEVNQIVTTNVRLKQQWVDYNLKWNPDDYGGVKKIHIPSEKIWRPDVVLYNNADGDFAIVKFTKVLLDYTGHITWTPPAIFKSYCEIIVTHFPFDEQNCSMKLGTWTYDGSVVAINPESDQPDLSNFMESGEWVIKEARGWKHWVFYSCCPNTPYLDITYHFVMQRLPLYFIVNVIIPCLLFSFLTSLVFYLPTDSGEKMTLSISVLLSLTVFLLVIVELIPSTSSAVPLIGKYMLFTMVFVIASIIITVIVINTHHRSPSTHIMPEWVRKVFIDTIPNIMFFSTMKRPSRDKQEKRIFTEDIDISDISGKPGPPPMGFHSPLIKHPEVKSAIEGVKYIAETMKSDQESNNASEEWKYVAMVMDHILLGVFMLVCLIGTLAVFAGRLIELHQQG
T1 sequence (P43681 29-627 limits assumed): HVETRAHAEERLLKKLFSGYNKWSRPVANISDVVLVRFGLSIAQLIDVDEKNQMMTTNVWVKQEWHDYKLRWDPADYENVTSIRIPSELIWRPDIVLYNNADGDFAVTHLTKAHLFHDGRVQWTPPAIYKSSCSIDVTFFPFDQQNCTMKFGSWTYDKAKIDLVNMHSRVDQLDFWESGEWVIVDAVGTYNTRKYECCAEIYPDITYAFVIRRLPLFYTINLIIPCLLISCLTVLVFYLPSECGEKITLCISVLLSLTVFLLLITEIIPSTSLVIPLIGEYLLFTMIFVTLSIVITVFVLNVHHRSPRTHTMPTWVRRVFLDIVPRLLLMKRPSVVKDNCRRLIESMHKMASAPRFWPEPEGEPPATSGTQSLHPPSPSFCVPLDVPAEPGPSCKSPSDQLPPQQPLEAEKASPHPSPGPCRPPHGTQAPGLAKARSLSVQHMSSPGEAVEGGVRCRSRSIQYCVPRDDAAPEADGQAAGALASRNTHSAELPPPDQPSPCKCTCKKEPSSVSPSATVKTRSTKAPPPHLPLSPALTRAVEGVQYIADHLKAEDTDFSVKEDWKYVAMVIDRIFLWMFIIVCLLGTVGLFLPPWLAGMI
T1 sequence (P17787 26-502): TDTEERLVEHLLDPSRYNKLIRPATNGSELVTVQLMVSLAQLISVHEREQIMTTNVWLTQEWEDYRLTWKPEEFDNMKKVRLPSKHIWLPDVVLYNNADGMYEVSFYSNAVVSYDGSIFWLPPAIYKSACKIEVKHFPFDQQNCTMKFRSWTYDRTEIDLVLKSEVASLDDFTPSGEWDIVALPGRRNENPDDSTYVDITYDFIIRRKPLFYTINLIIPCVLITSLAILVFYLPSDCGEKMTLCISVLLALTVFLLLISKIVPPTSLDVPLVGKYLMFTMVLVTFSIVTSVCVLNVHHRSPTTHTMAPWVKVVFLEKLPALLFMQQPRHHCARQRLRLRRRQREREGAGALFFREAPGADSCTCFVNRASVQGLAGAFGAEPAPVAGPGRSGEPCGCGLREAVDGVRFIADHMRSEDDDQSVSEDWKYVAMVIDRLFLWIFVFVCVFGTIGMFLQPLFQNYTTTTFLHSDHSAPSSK

Structure (SMILES)	remaining activity at 100 µM [1] [%]	remaining activity at 1000 µM [1] [%]	Agonist activity: control % by response at 100 μM of the test compound ([2]; 100 μM test compound, relative to 10 μM acetylcholine (100%))	EC50 [2] [µM]
Clc1ncc(C2=NCCCN2)s1 [Compound 22, 2-(2-chloro-5-thiazolyl)-1,4,5,6-tetrahydropyrimidine]	23	-4	(13.2%)	
Clc1ccc(C2=NCCCN2)cn1 [Compound 2, 2-(6-chloro-3-pyridyl)-1,4,5,6-tetrahydropyrimidine]	34	6		3.4
CN1CCN=C1c1ccc(Cl)nc1 [Compound 3, 2-(6-chloro-3-pyridyl)-1-methyl-2-imidazoline]	34	5		43.8
